# According to US11998008B2, “Pesticides and methods of controlling pests” (The State of Israel, Ministry of Agriculture & Rural …, priority 2017, dated 2024):
# Assays:
# [1] = tested on: P. digitatum; experiment: Fungicidal activity assay on PDA in sealed Petri dish (growth inhibition and mortality); format: cell-based, Penicillium digitatum; conditions: Penicillium digitatum, NA + number = still viable in the highest concentration tested (given as >), read-out: M - Mortality, minimal concentration that killed the fungus
# Procedure: (§1) In exemplary procedures, the fungicidial activity of the compounds listed in Table 2 were examined by activity assays as follow: Petri dishes, 90 mm in diameter, with air volume of 80 mL, contained 10-12 mL of growth medium comprising potato dextrose agar (PDA) (Acumedia, Lansing, Michigan, USA) amended with tetracycline at 12 μg/mL. Each compound was placed on a disconnected cover from an Eppendorf tube that was located in the middle of the Petri dish and a hyphae-containing plug of each test fungus was added to the culture plate. In exemplary procedures, the tested compounds trans-2-heptenal, trans-2-octenal were tested in comparison with octanal, trans-2-octen-1-ol, methyl trans-2-octenoate, trans-3-octen-2-one and 3-pentenenitrile. In addition, cyclic ketones as 2-cyclopenten-1-one, 2-cyclohexen-1-one and α-tetralone were also examined. Then, the culture plate was sealed with parafilm and incubated at room-temperature for 2 days, after which the growth of the test fungi in those dishes was compared with those in the test compound-free control dishes. At the end of the assay, the viability of each test fungus was evaluated by transferring inoculum plugs to fresh PDA plates and observing the growth that developed within the next 2 days. The test fungi used in this study included but were not limited to Alternaria alternata, Botrytis cinerea, Sclerotinia rolfsii, Penicillium digitatum, Fusarium oxysporum f. sp. radicis-cucumerinum and Rhizoctonia solani.
# [2] = tested on: Solanum nigrum seeds; experiment: Viability of weed seeds buried in sandy soil; format: in vivo; conditions: 54 ppm of emulsion, depth 10 cm, 6 days in soil, evaluated 6 days after resowing
# Procedure: The effect of trans-2-octenal was also examined on the weed Solanum nigrum. To this end, 20 seeds of this weed were put in tea bags and buried in sandy soil at the depth of 10 cm. Six (6) days later, 54 ppm of emulsion of trans-2-octenal were applied via the irrigation system. After additional 6 days the seeds were removed from the soil and sown in fresh loam pots. A control experiment was performed as above except that the seeds were irrigated with tap water without the compound. The viability of the seeds was evaluated after 6 days.
# [3] = tested on: S. rolfsii; experiment: Fungicidal activity assay on PDA in sealed Petri dish (growth inhibition and mortality); format: cell-based, Sclerotinia rolfsii; conditions: Agroathelia rolfsii; S. rolfsii; NA + number = still viable in the highest concentration tested (given as >); read-out: M - Mortality, minimal concentration that killed the fungus
# [4] = tested on: chlamydospores of Forl; experiment: Open field experiment in sandy soil; format: in vivo, Fusarium oxysporum f sp. radicis-lycopersici; conditions: emulsion, 54 ppm active compound, 6 days
# Procedure: In this experiment, an emulsions of trans-2-octenal (25% active compound) such as those described in Example 9 were used. The soil was inoculated with chlamydospores of Forl and sclerotia of S. rolfsii. Five gram of soil, highly inoculated with chlamydospores were wrapped in nylon tights and buried in the field at depths of 10, 30, and 50 cm. Tea bags containing 50 S. rolfsii sclerotia were prepared as described above and buried similarly. After 6 days, trans-2-octenal emulsion, at concentration of 54 ppm (active compound) was applied using the irrigation system. The same conditions were applied to a control plot except that the plot was irrigated with tap water without the compound. The plots were left open during the time of the experiment. After 6 days, the pathogens were removed from the soil and their viability was examined using PDA+tet culture plates. […] As shown in these figures, elimination of both phytopathogenic fungi occurred at the lowest depth of 10 cm.
# [5] = tested on: Fusarium oxysporum f sp. radicis-lycopersici (Forl); experiment: Effect on Forl in loam soil in buckets, applied by irrigation system; format: in vivo; conditions: open and close conditions, except depth 30 cm at the lowest concentration in close condition
# Procedure: The activity of trans-2-octenal was examined against phytopathogenic fungi and weeds. The experiment was performed in large buckets (110 L), which bottoms were removed, and therefore the loam in the bucket was continuous with the ground. The soil was inoculated one day prior the application of the compound. Soil inoculation was performed as follows: spores of Fusarium oxysporum f sp. radicis-cucumerinum (FORC) were collected from culture plates and 25 mL of spore suspension at concentration of 9×10^5 was mixed with 10 L of tap water and then poured on the soil of each bucket. […] Half of the buckets were sealed with nylon while the other half remained open. Five days later, soil samples from three different depths (10, 20, and 30 cm) were taken from each bucket for fungal isolation and determination of fungal survival. […] After 3 days, the number of colonies was counted. […] Similar results were obtained at close condition, except at depth 30 cm at concentration of 62.5 ppm.
# The experiment was repeated with the following modifications: different phytopathogenic fungus—Fusarium oxysporum f sp. radicis-lycopersici (Forl), lower concentrations—31.25, 62.5, and 93.75 ppm, and the application of the compound was done using the irrigation system.
# [6] = tested on: B. cinerea; experiment: Fungicidal activity assay on PDA in sealed Petri dish (growth inhibition and mortality); format: cell-based, Botrytis cinerea; conditions: Botrytis cinerea, NA + number = still viable in the highest concentration tested (given as >), read-out: M - Mortality, minimal concentration that killed the fungus
# Procedure: as §1
smiles,measurement,setting,value
CCCCC/C=C/C=O [trans-2-octenal],MFC,[1],12.5 µg/mL
same,viability of the seeds,[2],eliminated seeds viability
same,MFC,[3],6.25 µg/mL
same,viability of Forl chlamydospores,[4]; 30 and 50 cm depth,No elimination
same,viability of Forl chlamydospores,"[4]; depth 10 cm, open plot",elimination
same,concentration at which elimination of Forl was achieved,[5],31.25 ppm
same,MFC,[6],50 µg/mL
